Results from paper PMC2365111, “Cytotoxicity of Poly(Phenolic)Sulfonates and Their Sodium Salts in L1210 Lymphoid Leukemia Cells” (Metal-Based Drugs, 1998).

What was measured:
L1210 RNA synthesis = assay: Incorporation of labeled precursor into RNA; type: cell-based, mouse; conditions: 60 min, N=6
From the text: (§1) CYTOTOXlCITY OF POLY(PHENOLIC)SULFONATES AND THEIR SODIUM SALTS IN L1210 LYMPHOID LEUKEMIA CELLS Fei Wang, Amy E. Warren, Cheryl R. Barnes and Iris H. Hall* Division of Medicinal Chemistry and Natural Products University of North Carolina Chapel Hill, N.C. […] Because ofthese properties it was surmised that these poly(phenolic)sulfonated compounds may have antineoplastic activity. METHODS Source of Compounds Test compounds were supplied by GeneLabs, Inc. [Redwood City, CA [Table 1]. Radioisotopes were obtained from New England Nuclear [Dupont, Boston, MA]. Substrates and co-factors were purchased om Sigma Chemical Co., [St Louis, MO]. Pentosan sulfate and other antineoplastic standards were obtained from Sigma Chemical Co. Tumor lines were obtained from American Type Culture Collection [Rockville, MD]. 147 Vol. 5, No. 3, 1998 Cytotoxicity ofSodium Poly(Phenolic)Sulfonates in L1210 Lymphoid Leukemia Cells Table 1 Structures of Poly(phenolic)sulfonate Compounds O2R" n Compound R' R" n MW # G1-2041 H OH 8 1489.46 G1-2029 H OH 6 1117.09 G1-2030 H OH 4 744.73 GI-2021 CH3 ONa 8 1777.5 G1-2057 CH3 ONa 4 888.75 GI-2158 CH3 ONa 6 1333.13 GI-2063 OCH3 ONa 8 2001.65 G1-2042 OAc ONa 8 2017.73 Cytotoxicity Poly(phenolic)sulfonates were tested for cytotoxic activity by homogenizing drug in 0.05% Tween 80/H20 to give a mg/ml stock concentration. These solutions were sterilized by passing them through an acrodisc ([…]). The following cell lines were maintained by literature techniques: murine L1210 lymphoid leukemia, P-388 lymphocytic leukemia, rat UMR 106 osteosarcoma, human Tmolt3 acute lymphoblastic T cell leukemia, HUT-8 lymphoma, HeLa-S suspended cervical carcinoma, HeLa solid cervical carcinoma, KB epidermoid nasopharynx, A431 epidermoid carcinoma, colorectal adenocarcinoma SW480, HCT-8 ileocecal adenocarcinoma, lung bronchogenic MB-9812, A549 lung carcinoma, and glioma HS683. Geran et al.'s protocol was used to assess the cytotoxicity of the compounds and standards in each cell line. Cell numbers were determined by the trypan blue exclusion technique. Solid tumor cytotoxicity was determined by Leibovitz et al. 's method utilizing crystal violeeOH and read at 562 nm (Molecular Devices). Values for cytotoxicity were expressed as EDs0 g/ml, i.e. the concentration ofthe compound inhibiting 50% ofcell growth. A value of less than 4 µg/ml was required for significant activity ofgrowth inhibition. Incorporation Studies Incorporation of labeled precursors into 3H-DNA, 3H -RNA and 3H -protein for 10 L1210 cells was obtained. The concentration response for inhibition of DNA, RNA and protein synthesis of the compounds at 25, 50 and 100 l.tM was determined for 60 min incubations. Incorporation of 14C -glycine (53.0 mCi/mmol) into purines was obtained by the method of Cadman et al.[12]. Incorporation of 4C- formate (53.0 mCi/mmol) into pyrimidines was determined by the method of Christopherson et al.[13]. […] DNA polymerase Ot activity was determined in cytoplasmic extracts isolated by Eichler et aL's method. […] Messenger-, ribosomal- and transfer-RNA polymerase enzymes were isolated with different concentrations of ammonium sulfate; individual RNA polymerase activities were determined using 3H -UTP 16,17]. Ribonucleoside reductase activity was measured using 4C -CDP with dithioerythritol. […]

[1] = tested on: murine L1210 lymphoid leukemia; type: cell-based, mouse; conditions: for ED50 converted to: converted from μg/ml
From the text: (§2) CYTOTOXlCITY OF POLY(PHENOLIC)SULFONATES AND THEIR SODIUM SALTS IN L1210 LYMPHOID LEUKEMIA CELLS Fei Wang, Amy E. Warren, Cheryl R. Barnes and Iris H. Hall* Division of Medicinal Chemistry and Natural Products University of North Carolina Chapel Hill, N.C. […] Because ofthese properties it was surmised that these poly(phenolic)sulfonated compounds may have antineoplastic activity. METHODS Source of Compounds Test compounds were supplied by GeneLabs, Inc. [Redwood City, CA [Table 1]. Radioisotopes were obtained from New England Nuclear [Dupont, Boston, MA]. Substrates and co-factors were purchased om Sigma Chemical Co., [St Louis, MO]. Pentosan sulfate and other antineoplastic standards were obtained from Sigma Chemical Co. Tumor lines were obtained from American Type Culture Collection [Rockville, MD]. 147 Vol. 5, No. 3, 1998 Cytotoxicity ofSodium Poly(Phenolic)Sulfonates in L1210 Lymphoid Leukemia Cells Table 1 Structures of Poly(phenolic)sulfonate Compounds O2R" n Compound R' R" n MW # G1-2041 H OH 8 1489.46 G1-2029 H OH 6 1117.09 G1-2030 H OH 4 744.73 GI-2021 CH3 ONa 8 1777.5 G1-2057 CH3 ONa 4 888.75 GI-2158 CH3 ONa 6 1333.13 GI-2063 OCH3 ONa 8 2001.65 G1-2042 OAc ONa 8 2017.73 Cytotoxicity Poly(phenolic)sulfonates were tested for cytotoxic activity by homogenizing drug in 0.05% Tween 80/H20 to give a mg/ml stock concentration. These solutions were sterilized by passing them through an acrodisc ([…]). The following cell lines were maintained by literature techniques: murine L1210 lymphoid leukemia, P-388 lymphocytic leukemia, rat UMR 106 osteosarcoma, human Tmolt3 acute lymphoblastic T cell leukemia, HUT-8 lymphoma, HeLa-S suspended cervical carcinoma, HeLa solid cervical carcinoma, KB epidermoid nasopharynx, A431 epidermoid carcinoma, colorectal adenocarcinoma SW480, HCT-8 ileocecal adenocarcinoma, lung bronchogenic MB-9812, A549 lung carcinoma, and glioma HS683. Geran et al.'s protocol was used to assess the cytotoxicity of the compounds and standards in each cell line. Cell numbers were determined by the trypan blue exclusion technique. Solid tumor cytotoxicity was determined by Leibovitz et al. 's method utilizing crystal violeeOH and read at 562 nm (Molecular Devices). Values for cytotoxicity were expressed as EDs0 g/ml, i.e. the concentration ofthe compound inhibiting 50% ofcell growth. A value of less than 4 µg/ml was required for significant activity ofgrowth inhibition. Incorporation Studies Incorporation of labeled precursors into 3H-DNA, 3H -RNA and 3H -protein for 10 L1210 cells was obtained. The concentration response for inhibition of DNA, RNA and protein synthesis of the compounds at 25, 50 and 100 l.tM was determined for 60 min incubations. Incorporation of 14C -glycine (53.0 mCi/mmol) into purines was obtained by the method of Cadman et al.[12]. Incorporation of 4C- formate (53.0 mCi/mmol) into pyrimidines was determined by the method of Christopherson et al.[13]. Enzyme Assays Inhibition of various enzyme activities was performed by first preparing the appropriate L1210 cell homogenates or subcellular fractions, then adding the drug to be tested during the enzyme assay. For the concentration response studies, inhibition of enzyme activity was determined at 25, 50 and 100 l.tM of compounds G1-2021, G1-2029, GI-2041 and G1-2063 after 60 min incubations. DNA polymerase Ot activity was determined in cytoplasmic extracts isolated by Eichler et aL's method. The DNA polymerase assay was described by Sedwick et al.[15] using 3H-TTP. Messenger-, ribosomal- and transfer-RNA polymerase enzymes were isolated with different concentrations of ammonium sulfate; individual RNA polymerase activities were determined using 3H -UTP 16,17]. Ribonucleoside reductase activity was measured using 4C -CDP with dithioerythritol. The deoxyribonucleotides 4C -dCDP were separated from the ribonucleotides by TLC on PEI plates. […]

PRPP amido transferase = target: T1, PRPP amido transferase (Mus musculus, UniProt Q8CIH9); assay: PRPP amidotransferase activity, L1210; type: biochemical; conditions: 60 min, N=6
T1 construct: preparing the appropriate L1210 cell homogenates or subcellular fractions; endogenous in cells; host or cells: L1210 murine lymphoid leukemia cells, homogenate or subcellular fraction
From the text: as §1

Dihydrofolate reductase = target: T2, Dihydrofolate reductase (Mus musculus, UniProt P00375); assay: Dihydrofolate reductase activity, L1210; type: biochemical; conditions: 60 min, N=6
T2 construct: preparing the appropriate L1210 cell homogenates or subcellular fractions; endogenous in cells; host or cells: L1210 murine lymphoid leukemia cells, homogenate or subcellular fraction
T2 sequence (P00375 1-187): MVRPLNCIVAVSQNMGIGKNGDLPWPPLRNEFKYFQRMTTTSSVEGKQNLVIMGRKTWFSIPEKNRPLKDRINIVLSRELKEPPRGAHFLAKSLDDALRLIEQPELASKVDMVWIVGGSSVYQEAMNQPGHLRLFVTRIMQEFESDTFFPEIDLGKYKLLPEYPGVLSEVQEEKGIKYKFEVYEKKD
From the text: as §2

[2] = tested on: L1210 de novo purine synthesis; assay: 14C-glycine incorporation into purines; type: cell-based, mouse; conditions: 60 min, N=6
From the text: as §2

Thymidylate synthetase = target: T3, Thymidylate synthetase (Mus musculus, UniProt P07607); assay: Thymidylate synthetase activity, L1210; type: biochemical; conditions: 60 min, N=6
T3 construct: preparing the appropriate L1210 cell homogenates or subcellular fractions; endogenous in cells; host or cells: L1210 murine lymphoid leukemia cells, homogenate or subcellular fraction
From the text: as §2

Thymidine kinase = Thymidine kinase activity, L1210; type: biochemical, mouse; conditions: 60 min, N=6
From the text: as §2

tRNA polymerase = assay: Transfer-RNA polymerase activity, L1210; type: biochemical, mouse; conditions: 60 min, N=6
From the text: as §2

mRNA polymerase = target: T4, mRNA polymerase (Mus musculus, UniProt P08775); assay: Messenger-RNA polymerase activity, L1210; type: biochemical; conditions: 100 μM, 60 min, N=6
T4 construct: Messenger-, ribosomal- and transfer-RNA polymerase enzymes were isolated with different concentrations of ammonium sulfate; endogenous in cells; host or cells: L1210 murine lymphoid leukemia cells, ammonium sulfate fraction
From the text: CYTOTOXlCITY OF POLY(PHENOLIC)SULFONATES AND THEIR SODIUM SALTS IN L1210 LYMPHOID LEUKEMIA CELLS Fei Wang, Amy E. Warren, Cheryl R. Barnes and Iris H. Hall* Division of Medicinal Chemistry and Natural Products University of North Carolina Chapel Hill, N.C. […] Because ofthese properties it was surmised that these poly(phenolic)sulfonated compounds may have antineoplastic activity. METHODS Source of Compounds Test compounds were supplied by GeneLabs, Inc. [Redwood City, CA [Table 1]. Radioisotopes were obtained from New England Nuclear [Dupont, Boston, MA]. Substrates and co-factors were purchased om Sigma Chemical Co., [St Louis, MO]. Pentosan sulfate and other antineoplastic standards were obtained from Sigma Chemical Co. Tumor lines were obtained from American Type Culture Collection [Rockville, MD]. […] Cell numbers were determined by the trypan blue exclusion technique. Solid tumor cytotoxicity was determined by Leibovitz et al. 's method utilizing crystal violeeOH and read at 562 nm (Molecular Devices). Values for cytotoxicity were expressed as EDs0 g/ml, i.e. the concentration ofthe compound inhibiting 50% ofcell growth. […] Incorporation of 4C- formate (53.0 mCi/mmol) into pyrimidines was determined by the method of Christopherson et al.[13]. […] DNA polymerase Ot activity was determined in cytoplasmic extracts isolated by Eichler et aL's method. […] Messenger-, ribosomal- and transfer-RNA polymerase enzymes were isolated with different concentrations of ammonium sulfate; individual RNA polymerase activities were determined using 3H -UTP 16,17]. Ribonucleoside reductase activity was measured using 4C -CDP with dithioerythritol. […]

IMP dehydrogenase = IMP dehydrogenase activity, L1210; type: biochemical, mouse; conditions: 60 min, N=6
From the text: as §1

[3] = target: T5, Thymidine monophosphate kinase (Mus musculus, UniProt P97930); assay: TMP kinase activity, L1210; type: biochemical; conditions: 60 min, N=6
T5 construct: preparing the appropriate L1210 cell homogenates or subcellular fractions; endogenous in cells; host or cells: L1210 murine lymphoid leukemia cells, homogenate or subcellular fraction
T5 sequence (P97930 1-212): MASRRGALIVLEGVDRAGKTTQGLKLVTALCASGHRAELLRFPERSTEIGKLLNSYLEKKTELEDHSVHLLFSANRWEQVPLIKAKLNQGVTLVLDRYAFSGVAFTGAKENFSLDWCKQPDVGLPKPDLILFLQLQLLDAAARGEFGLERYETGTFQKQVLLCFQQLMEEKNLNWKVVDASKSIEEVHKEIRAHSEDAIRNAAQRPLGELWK
From the text: as §2

T3 sequence (P07607 whole entry): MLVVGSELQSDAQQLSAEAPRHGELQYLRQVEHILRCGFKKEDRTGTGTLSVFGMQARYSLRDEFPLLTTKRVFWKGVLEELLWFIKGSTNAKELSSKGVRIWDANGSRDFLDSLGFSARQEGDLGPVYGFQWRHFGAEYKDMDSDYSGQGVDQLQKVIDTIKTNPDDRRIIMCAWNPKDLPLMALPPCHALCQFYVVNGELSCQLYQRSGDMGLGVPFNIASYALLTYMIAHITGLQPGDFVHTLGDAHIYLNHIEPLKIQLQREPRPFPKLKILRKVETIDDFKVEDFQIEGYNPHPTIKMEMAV
T1 sequence (Q8CIH9 12-517): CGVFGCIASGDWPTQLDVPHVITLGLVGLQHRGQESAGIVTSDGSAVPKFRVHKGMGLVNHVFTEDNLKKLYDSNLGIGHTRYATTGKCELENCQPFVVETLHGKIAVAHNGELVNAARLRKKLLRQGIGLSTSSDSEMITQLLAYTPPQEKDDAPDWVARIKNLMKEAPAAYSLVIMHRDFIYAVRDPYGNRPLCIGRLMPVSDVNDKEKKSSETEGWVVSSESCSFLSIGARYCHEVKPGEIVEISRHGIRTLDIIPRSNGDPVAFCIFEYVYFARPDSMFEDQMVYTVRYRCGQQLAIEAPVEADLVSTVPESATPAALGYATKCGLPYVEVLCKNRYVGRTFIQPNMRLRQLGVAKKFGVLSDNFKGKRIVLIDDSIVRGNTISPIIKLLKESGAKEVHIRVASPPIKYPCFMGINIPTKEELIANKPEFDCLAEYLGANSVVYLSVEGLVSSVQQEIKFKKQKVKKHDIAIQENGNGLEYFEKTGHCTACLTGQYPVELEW

Compound	cytotoxic activity, in words [1]	ED50 converted to [1] [µM]	PRPP amido transferase (PRPP amido transferase; 50 μM)	Dihydrofolate reductase (Dihydrofolate reductase; 100 μM)	Purine de novo synthesis ([2]; 25 μM)	Thymidylate synthetase (Thymidylate synthetase; 25 μM)	Thymidylate synthetase (Thymidylate synthetase; 50 μM)	Thymidine kinase (Thymidine kinase; 25 μM)	Thymidine kinase (Thymidine kinase; 50 μM)	tRNA polymerase (tRNA polymerase; 25 μM)	mRNA polymerase (mRNA polymerase)	IMP dehydrogenase (IMP dehydrogenase; 25 μM)	Thymidine monophosphate kinase ([3]; 25 μM)	Thymidine monophosphate kinase ([3]; 50 μM)	also measured
O=S(=O)(O)c1cc2c(O)c(c1)Cc1cc(S(=O)(=O)O)cc(c1O)Cc1cc(S(=O)(=O)O)cc(c1O)Cc1cc(S(=O)(=O)O)cc(c1O)Cc1cc(S(=O)(=O)O)cc(c1O)Cc1cc(S(=O)(=O)O)cc(c1O)C2 [GI-2029]	most potent activity	1.362	30+3% of Control	127+6% of Control	130+6% of Control	92+5% of Control	89+6% of Control	105+6% of Control	104+6% of Control	103+5% of Control	50+3% of Control	270+5% of Control	118+6% of Control	50+5% of Control	RNA synthesis (L1210 RNA synthesis; 50 μM): 91+5% of Control; Dihydrofolate reductase (Dihydrofolate reductase; 50 μM): 108+5% of Control; Purine de novo synthesis ([2]; 50 μM): 97+6% of Control; tRNA polymerase (tRNA polymerase; 50 μM): 98+5% of Control; IMP dehydrogenase (IMP dehydrogenase; 50 μM): 184+6% of Control
O=S(=O)(O)c1cc2c(O)c(c1)Cc1cc(S(=O)(=O)O)cc(c1O)Cc1cc(S(=O)(=O)O)cc(c1O)Cc1cc(S(=O)(=O)O)cc(c1O)Cc1cc(S(=O)(=O)O)cc(c1O)Cc1cc(S(=O)(=O)O)cc(c1O)Cc1cc(S(=O)(=O)O)cc(c1O)Cc1cc(S(=O)(=O)O)cc(c1O)C2 [GI-2041]	most potent activity	1.263	38+3% of Control	92+5% of Control	85+5% of Control	105+5% of Control	103+6% of Control	116+5% of Control	104+5% of Control	108+6% of Control	47+3% of Control	131+6% of Control	80+5% of Control	41+3% of Control	RNA synthesis (L1210 RNA synthesis; 25 μM): 130+5% of Control; PRPP amido transferase (PRPP amido transferase; 100 μM): 10+2% of Control; Dihydrofolate reductase (Dihydrofolate reductase; 25 μM): 105+5% of Control; Purine de novo synthesis ([2]; 100 μM): 54+3% of Control; Thymidylate synthetase (Thymidylate synthetase; 100 μM): 92+5% of Control; IMP dehydrogenase (IMP dehydrogenase; 100 μM): 70+4% of Control
